Literature values, collected in patent US5945417A, “Heterocyclic compounds, their preparation and use” (priority 1995, dated 1999).

What was measured:
[1] = tested on: metabotropic glutamate receptors; conditions: literature
[2] = tested on: trans ACPD stimulated phosphoinositide hydrolysis; conditions: literature
[3] = tested on: mGluR1α; conditions: 1 mM quisqualate or glutamate; BHK cells expressing mGluR1α
[4] = tested on: release of dopamine in the rat brain; conditions: literature
[5] = tested on: MCAO model in mice; conditions: literature
[6] = tested on: nerve cell cultures; conditions: literature
[7] = tested on: control BHK cells; conditions: 1 mM quisqualate or glutamate

SMILES: Cc1onc(O)c1CC(N)C(=O)O (stereo not shown) [AMPA]
- action on the metabotropic glutamate receptors [1]: little effect

SMILES: N[C@H](C(=O)O)c1ccc(C(=O)O)c(O)c1 [Compound S-4C3HPG, S-4-carboxy-3-hydroxyphenyl glycine]
- antagonism of trans ACPD stimulated phosphoinositide hydrolysis [2]: antagonise trans ACPD stimulated phosphoinositide hydrolysis

SMILES: N[C@H](C(=O)O)c1ccc(C(=O)O)cc1 [Compound S-4CPG, S-4-carboxyphenyl glycine]
- antagonism of trans ACPD stimulated phosphoinositide hydrolysis [2]: antagonise trans ACPD stimulated phosphoinositide hydrolysis

SMILES: N[C@@H](CP(=O)(O)O)C(=O)O [L-AP3, L-2-amino-3-phosphonopropionic acid]
- action on the metabotropic glutamate receptors [1]: partial agonist

SMILES: N[C@@H](CCC(=O)O)C(=O)O [L-glutamate]
- fold increase over basal Pl-hydrolysis [3]: 6-8 fold

SMILES: CN[C@H](CC(=O)O)C(=O)O [NMDA]
- action on the metabotropic glutamate receptors [1]: little effect

SMILES: C[C@@](N)(C(=O)O)c1ccc(C(=O)O)cc1 [S-MCPG, S-alpha methyl4-carboxyphenyl glycine]
- antagonism of trans ACPD stimulated phosphoinositide hydrolysis [2]: antagonise trans ACPD stimulated phosphoinositide hydrolysis

SMILES: N[C@@]1(C(=O)O)CC[C@@H](C(=O)O)C1 [Trans-ACPD, trans 1S,3R-1-aminocyclopentane-1,3-dicarboxylicacid]
- release of dopamine in the rat brain [4]: increase release of dopamine in the rat brain
- neuroprotection in an MCAO model in mice [5]: neuroprotective agent
- inhibition of NMDA induced neurotoxicity [6]: inhibit NMDA induced neurotoxicity
- action on the metabotropic glutamate receptors [1]: selectively activated

SMILES: NC(C(=O)O)c1cc(O)no1 (stereo not shown) [ibotenate]
- action on the metabotropic glutamate receptors [1]: non-selective agonists

SMILES: C=C(C)[C@H]1CN[C@H](C(=O)O)[C@H]1CC(=O)O [kainate]
- action on the metabotropic glutamate receptors [1]: little effect

SMILES: N[C@@H](Cn1oc(=O)[nH]c1=O)C(=O)O [quisqualate]
- fold increase over basal Pl-hydrolysis [3]: 6-8 fold
- stimulation in control BHK cells [7]: no stimulation
- action on the metabotropic glutamate receptors [1]: non-selective agonists
